One data set in a line: Acid-base titration (pK). The class given is physicochemical. The following applies: acid-base titration in METHYLCELLOSOLVE/H2O 4:1 (v/v), 0.01N KOH; salt form per Table IV. Here is the method:
The following table (Table IV) reports the acid-base titration data of some representative compounds of the invention. The assays were carried out in METHYLCELLOSOLVE/H2 O, 4:1(v/v). A sample is dissolved in METHYLCELLOSOLVE/H2 O, 4:1(v/v) (10 umole in about 20 ml) and then 0.01N HCl (2 ml) is added and the mixture is titrated with 0.01N KOH in the same solvent mixture.

Data set [1] in a line: Isoelectric point (pI) by isoelectrofocusing with bioautography detection. The class given is physicochemical. Particulars: IEF technique, polyacrylamide gel. The essentials:
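Polyacrylamide gel IEF (8% T, 4% C, 2% ampholytes) at 4 °C, with samples of 0.2–2.5 μg antibiotic focused at 10 W constant power for 3–3.5 h. pI was interpolated from a plot of gel-section pH (eluted in 10 mM KCl) against distance from the anode. Spots were located by bioautography on agar seeded with Bacillus subtilis ATCC 6633, incubated overnight at 37 °C.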

For the next data set, the system named is S. pyogenes L 49. Description: In vivo test in mice experimentally infected with S. pyogenes L 49 (ED50). The following applies: mice infected with S. pyogenes L 49; for ED50, route of administration os.: oral.
For a further data set, the system named is S. pneumoniae UC 41. Description: In vitro antibacterial activity, standard agar-dilution test (MIC). The following applies: inoculum about 10^4 CFU/ml, 18-24 h at 37° C. The class given is cell-based. The essentials: (§1)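 Agar-dilution MIC with a final inoculum of about 10^4 CFU/ml, prepared from broth cultures.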
Data set [2] concerns S. epidermidis ATCC 12228. Described as above. The following applies: inoculum about 10^4 CFU/ml, 18-24 h at 37° C. It counts as cell-based. The essentials: as §1
A further data set has as its system S. aureus Tour. The data set is described as above. The class given is cell-based. Particulars: inoculum about 10^4 CFU/ml, 18-24 h at 37° C. The essentials:
as §1

Another data set deals with E. coli SKF 12140. The data set is described as above. It counts as cell-based. The following applies: inoculum about 10^4 CFU/ml, 18-24 h at 37° C. The essentials: as §1
In data set [3] the test system is Pseudomonas aeruginosa ATCC 10145. The description is as above. It counts as cell-based. Particulars: inoculum about 10^4 CFU/ml, 18-24 h at 37° C. The essentials:
as §1

The test system of data set [4] is Proteus vulgaris X 19H ATCC 881. The data set is described as above. It counts as cell-based. Particulars: inoculum about 10^4 CFU/ml, 18-24 h at 37° C. The essentials: as §1
The next data set concerns S. aureus ATCC 6538. Described as above. It counts as cell-based. The following applies: inoculum about 10^4 CFU/ml, 18-24 h at 37° C. The essentials:
as §1

The test system of a further data set is S. pyogenes C 203. Described as above. It counts as cell-based. The following applies: inoculum about 10^4 CFU/ml, 18-24 h at 37° C. The essentials:
(§2)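 Growth media: Iso-Sensitest broth (staphylococci); Todd broth (streptococci). Final inoculum approx. 10^4 CFU/ml.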

In another data set the test system is S. faecalis ATCC 7080. The description is as above. It counts as cell-based. Particulars: inoculum about 10^4 CFU/ml, 18-24 h at 37° C. The essentials: as §2

In brackets after ≈: the same amount, converted by molar mass.

In the case of `NC1C(=O)NC2Cc3ccc(c(Cl)c3)Oc3cc4cc(c3O)Oc3ccc(cc3Cl)C(O)C3NC(=O)C(NC(=O)C4NC(=O)C(NC2=O)c2cc(O)cc(c2)Oc2cc1ccc2O)c1ccc(O)c(c1)-c1c(O)cc(O)cc1C(C(=O)NCCN1CCOCC1)NC3=O` (centres unmarked) [Compound 21], in the data set “Acid-base titration (pK)”, the pK1 stood at 5.01 and the pK2 is 6.8. Moreover, the “Isoelectric point (pI)” value in data set [1] was found to be 7.9. Also, in the data set with S. pyogenes L 49, the “ED50, route of administration os.” value is reported as above 300 mg/kg and the “ED50, route of administration s.c” value was 2.2 mg/kg. Also, the “MIC S. pneumoniae UC 41” value in the data set with S. pneumoniae UC 41 came to 0.12 µg/mL (≈ 0.0915 µM). Also, the “MIC S. epidermidis ATCC 12228” value in data set [2] worked out at 0.016 µg/mL (≈ 0.0122 µM). Further, the “MIC S. aureus Tour” value with S. aureus Tour came to 0.12 µg/mL (≈ 0.0915 µM). Further, the “MIC E. coli SKF 12140” value against E. coli SKF 12140 worked out at 16 µg/mL (≈ 12.2 µM). For the same compound, the “MIC Pseudomonas aeruginosa ATCC 10145” value in [3] is 64 µg/mL (≈ 48.8 µM). Moreover, in [4], the “MIC Proteus vulgaris X 19H ATCC 881” value turned out to be 128 µg/mL (≈ 97.6 µM). Besides, in the data set with S. aureus ATCC 6538, the “MIC S. aureus ATCC 6538” value was determined as 0.06 µg/mL (≈ 0.0458 µM). The “MIC S. pyogenes C 203” value in the data set with S. pyogenes C 203 came to 0.12 µg/mL (≈ 0.0915 µM). In addition, in the data set on S. faecalis ATCC 7080, the “MIC S. faecalis ATCC 7080” value is 0.12 µg/mL (≈ 0.0915 µM).

As to `CN1CCN(C(=O)C2NC(=O)C3NC(=O)C(NC(=O)C4NC(=O)C5NC(=O)C(Cc6ccc(c(Cl)c6)Oc6cc4cc(c6O)Oc4ccc(cc4Cl)C3O)NC(=O)C(N)c3ccc(O)c(c3)Oc3cc(O)cc5c3)c3ccc(O)c(c3)-c3c(O)cc(O)cc32)CC1` (centres unmarked) [Compound 23], in “Acid-base titration (pK)”, the pK1 is listed as 5.6 and the pK2 was 6.8. In [1], the “Isoelectric point (pI)” value is 8.0. Moreover, in the data set with S. pyogenes L 49, the “ED50, route of administration os.” value was above 300 mg/kg and the “ED50, route of administration s.c” value is reported as 0.95 mg/kg. Moreover, the “MIC S. pneumoniae UC 41” value in the data set with S. pneumoniae UC 41 was found to be 0.12 µg/mL (≈ 0.0937 µM). For the same compound, the “MIC S. epidermidis ATCC 12228” value in [2] came out at 0.032 µg/mL (≈ 0.025 µM). Moreover, the “MIC S. aureus Tour” value against S. aureus Tour stood at 0.12 µg/mL (≈ 0.0937 µM). For the same compound, the “MIC E. coli SKF 12140” value against E. coli SKF 12140 amounted to 16 µg/mL (≈ 12.5 µM). For the same compound, the “MIC Pseudomonas aeruginosa ATCC 10145” value in [3] came out at 32 µg/mL (≈ 25 µM). The “MIC Proteus vulgaris X 19H ATCC 881” value in [4] is 64 µg/mL (≈ 50 µM). Besides, the “MIC S. aureus ATCC 6538” value against S. aureus ATCC 6538 came out at 0.06 µg/mL (≈ 0.0468 µM). For the same compound, in the data set on S. pyogenes C 203, the “MIC S. pyogenes C 203” value is 0.12 µg/mL (≈ 0.0937 µM). Further, in the data set on S. faecalis ATCC 7080, the “MIC S. faecalis ATCC 7080” value came out at 0.12 µg/mL (≈ 0.0937 µM).

With `NC1C(=O)NC2Cc3ccc(c(Cl)c3)Oc3cc4cc(c3O)Oc3ccc(cc3Cl)C(O)C3NC(=O)C(NC(=O)C4NC(=O)C(NC2=O)c2cc(O)cc(c2)Oc2cc1ccc2O)c1ccc(O)c(c1)-c1c(O)cc(O)cc1C(C(=O)N1CCOCC1)NC3=O` (centres unmarked) [Compound 25], in the data set “Acid-base titration (pK)”, the pK1 is 6.6. In addition, the “Isoelectric point (pI)” value in data set [1] was found to be 7.8. In the data set with S. pyogenes L 49, the “ED50, route of administration os.” value is above 300 mg/kg and the “ED50, route of administration s.c” value was 1.02 mg/kg. In addition, in the data set on S. pneumoniae UC 41, the “MIC S. pneumoniae UC 41” value is 0.12 µg/mL (≈ 0.0946 µM). For the same compound, the “MIC S. epidermidis ATCC 12228” value in [2] came out at 0.016 µg/mL (≈ 0.0126 µM). For the same compound, the “MIC S. aureus Tour” value in the data set on S. aureus Tour worked out at 0.12 µg/mL (≈ 0.0946 µM). In addition, the “MIC E. coli SKF 12140” value against E. coli SKF 12140 was 16 µg/mL (≈ 12.6 µM). For the same compound, in [3], the “MIC Pseudomonas aeruginosa ATCC 10145” value is 64 µg/mL (≈ 50.5 µM). In addition, in data set [4], the “MIC Proteus vulgaris X 19H ATCC 881” value amounted to 64 µg/mL (≈ 50.5 µM). The “MIC S. aureus ATCC 6538” value in the data set on S. aureus ATCC 6538 worked out at 0.12 µg/mL (≈ 0.0946 µM). Also, the “MIC S. pyogenes C 203” value with S. pyogenes C 203 stood at 0.12 µg/mL (≈ 0.0946 µM). The “MIC S. faecalis ATCC 7080” value in the data set with S. faecalis ATCC 7080 is 0.12 µg/mL (≈ 0.0946 µM).

For the origin of these results see patent publication US5521155A, “Amides of teicoplanin compounds” (Gruppo Lepetit S.p.A, priority 1985, dated 1996).
